The target in the test is Active Human ERK2 (hERK2) (Homo sapiens (Human), UniProt P28482). As to the kind of experiment: Active Human ERK2 (hERK2) Activity Assay (IMAP-FP). In kind it is biochemical. The method in brief:
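Reaction contains 0.5 nM activated hERK2, 900 nM unlabeled plus 80 nM labeled peptide and 30 μM ATP, run 60 min. Quenched with IMAP binding beads in buffer with 24 mM NaCl; fluorescence polarization read after 60 min binding equilibration.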

Where [1] appears, read: phosphorylated active hERK2, 30 μM ATP, average, read-out: ERK 2 Human average IC50.

pIC50: −log10 of the molar value. Like-named read-outs stand apart in the source and are kept apart here.

Chain of Active Human ERK2 (hERK2) (P28482 whole entry): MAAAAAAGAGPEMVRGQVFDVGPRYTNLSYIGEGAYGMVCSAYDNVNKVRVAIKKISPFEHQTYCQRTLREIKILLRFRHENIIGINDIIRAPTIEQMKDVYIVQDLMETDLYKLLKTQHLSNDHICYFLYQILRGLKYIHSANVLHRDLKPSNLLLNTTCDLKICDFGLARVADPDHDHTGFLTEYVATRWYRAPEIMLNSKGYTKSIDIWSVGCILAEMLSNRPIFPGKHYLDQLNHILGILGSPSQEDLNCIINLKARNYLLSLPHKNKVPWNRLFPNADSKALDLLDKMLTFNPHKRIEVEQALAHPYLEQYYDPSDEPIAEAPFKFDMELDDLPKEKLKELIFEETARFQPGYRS

Turning to `COc1ccc(-c2n[nH]c3cc(NC(=O)N[C@H](C)c4ccccc4)ncc23)cn1` [Example 650], the pIC50 under setting [1] is 9.50. The same measure, in the same setting: to `CC(CNC(=O)Nc1cc2[nH]nc(-c3ccc(F)cc3)c2cn1)N(C)C` (stereo not shown) [Example 227] belongs 7.59; to `Cc1cc(-c2n[nH]c3cc(NC(=O)NC(C)c4ccc(F)cn4)ncc23)ccn1` (stereo not shown) [Example 364], 8.78; to `Cc1cc(-c2n[nH]c3cc(NC(=O)NCc4ccccc4F)ncc23)ccn1` [Example 442], 9.09.

Consider `Cc1cc(-c2n[nH]c3cc(NC(=O)N[C@H](C)c4ccc(F)cn4)ncc23)ccn1` [Example 503], for which the pIC50 under setting [1] is 9.07.

Take `C[C@@H](NC(=O)Nc1cc2[nH]nc(C(=O)NCC3(O)CC3)c2cn1)c1ccccc1` [Example 124]: the pIC50 under setting [1] was 8.20. As to `COC[C@@H](NC(=O)Nc1ncc2c(-c3ccnc(F)c3)n[nH]c2c1F)c1ccccc1` [Example 543], under setting [1], the negative logarithm of the IC50 (pIC50) was 9.56.

Turning to `CO[C@@H](C)CNC(=O)Nc1cc2[nH]nc(-c3ccnc(C)c3)c2cn1` [Example 597], the pIC50 under setting [1] is 9.02. Turning to `Cc1cc(-c2n[nH]c3cc(NC(=O)NC(c4ccccc4)C(F)F)ncc23)ccn1` (stereo not shown) [Example 379], under setting [1], the pIC50 is 8.82.

As for `COC(=O)[C@@H](C)NC(=O)Nc1cc2[nH]nc(-c3ccnc(C)c3)c2cn1` [Example 461], under setting [1], the negative-log IC50 (pIC50) is 7.51. For `Cc1nc2ccc(-c3n[nH]c4cc(NC(=O)N[C@H](C)c5ccccc5)ncc34)cc2s1` [Example 87, 1-[3-(2-methyl-1,3-benzothiazol-6-yl)-1H-pyrazolo[4,3-c]pyridin-6-yl]-3-[(1R)-1-phenylethyl]urea], the pIC50 reads like this: under setting [1], 9.13; (read-out: AERK2 IC50 (Active human ERK2 Activity Assay)) 8.77 to 9.70. Turning to `Cc1cc(-c2n[nH]c3cc(NC(=O)NC(C)c4nnco4)ncc23)ccn1` (stereo not shown) [Example 556], the negative-log IC50 (pIC50) under setting [1] was 6.63. Still for that read-out and setting: with `Cc1cc(-c2n[nH]c3cc(NC(=O)NCCc4nc5ccccc5[nH]4)ncc23)ccn1` [Example 377] the figure was 9.32; with `COc1ncc(-c2n[nH]c3cc(NC(=O)N[C@H](C)c4ccccc4)ncc23)cn1` [Example 313], 9.14.

On to `Cc1cc(-c2n[nH]c3cc(NC(=O)NCC4COC4)ncc23)ccn1` [Example 588], for which the pIC50 under setting [1] is 7.51. Regarding `C[C@@H](NC(=O)Nc1cc2[nH]nc(-c3cnc(-n4cccn4)nc3)c2cn1)c1ccccc1` [Example 291], the negative logarithm of the IC50 (pIC50) under setting [1] was 8.35. Turning to `COCCn1cc(-c2n[nH]c3cc(NC(=O)N[C@H](C)c4ccccc4)ncc23)cn1` [Example 289], the pIC50 under setting [1] is 7.55. `C[C@@H](NC(=O)Nc1cc2[nH]nc(C(C)(C)O)c2cn1)c1ccccc1` [Example 611]: the pIC50 under setting [1] is 6.91.

Take `COC[C@@H](NC(=O)Nc1cc2[nH]nc(-c3ccc4nnn(C)c4c3)c2cn1)c1ccccc1` [Example 697]: the pIC50 under setting [1] is 9.66. Same read-out and setting: with `C[C@@H](NC(=O)Nc1cc2[nH]nc(-c3ccnc(F)c3)c2cn1)c1ccc(F)cc1` [Example 645] the figure was 9.21; with `C[C@@H](NC(=O)Nc1cc2[nH]nc(-c3ccc4nn(C)cc4c3)c2cn1)c1ccccc1` [Example 651], 9.65; with `COC[C@H](Cc1ccccc1)NC(=O)Nc1cc2[nH]nc(-c3ccnc(C)c3)c2cn1` [Example 494], 8.36.

Consider `CC(C)Oc1ccc(-c2n[nH]c3cc(NC(=O)N[C@H](C)c4ccccc4)ncc23)cn1` [Example 28, 1-{3-[6-(1-methylethoxy)pyridin-3-yl]-1H-pyrazolo[4,3-c]pyridin-6-yl}-3-[(1R)-1-phenylethyl]urea], for which the pIC50 under setting [1] is 8.44. As to `COc1ccnc([C@H](C)NC(=O)Nc2cc3[nH]nc(-c4ccnc(C)c4)c3cn2)c1` [Example 230], under setting [1], the pIC50 is 6.19. In the case of `Cc1cc(-c2n[nH]c3cc(NC(=O)N(C)C4CCCCC4)ncc23)ccn1` [Example 576], the pIC50 under setting [1] was 5.61. On the same count and under the same terms, to `CN1C[C@@H](NC(=O)Nc2cc3[nH]nc(-c4ccc(F)cc4)c3cn2)[C@H](c2ccccc2)C1` [Example 214] belongs 9.40; to `Cc1cc(-c2n[nH]c3cc(NC(=O)NCC(O)C(F)F)ncc23)ccn1` (stereo not shown) [Example 189], 7.99.

The term pIC50 denotes the IC50 on a negative log10 scale, so that one unit is a factor of ten.

These data come from US9023865B2, “Compounds that are ERK inhibitors” (Merck Sharp & Dohme Corp., priority 2011, dated 2015).
